Assays:
[1] = molecular target: T1, Biotinylated Human ACE2, His, Avitag protein (Homo sapiens, UniProt Q9BYF1); assay: Surface plasmon resonance (SPR) single cycle kinetics (SCK) direct binding; settings: 25° C., Langmuir (1:1) model
T1 construct: His; purchased ACROBiosystems AC2-H82E6
Protocol: 2. Affinity Determination by Surface Plasmon Resonance (SPR) Via Single Cycle Kinetics (SCK)
Binding of bicyclic peptides of the invention to Biotinylated Human ACE2, His, Avitag™ protein (ACROBiosystems, AC2-H82E6) was assessed by a SCK analysis. Experiments were performed at 25° C. on a Biacore T200 (Cytiva) running Biacore T200 Control software V2.0.1 and Evaluation software V3.0 (Cytiva). HBS-EP+ (Cytiva) was used as running buffer as well as for ligand and analyte dilutions. Biotin CAPture reagent was loaded onto a Series S Sensor CAP Chip (Cytiva) followed by loading of the ACE2 protein at a flow rate of 2 μl/min. The surface was then allowed to stabilise.
SCK data was obtained using bicyclic peptides of the invention as analytes injected at a flow rate of 30 μl/min to minimise any potential mass transfer effects. A minimum four point 2-fold dilution of analyte based on the affinity of the bicyclic peptides of the invention in running buffer was used without regeneration between each concentration. The association phases were monitored for 100 seconds for each of the four injections of increasing concentrations of analyte and a single dissociation phase was measured for 400 seconds following the last injection of analyte. Regeneration of the sensor chip surface was conducted using the CAP Chip standard regeneration buffer (Cytiva).
The signal from the reference channel Fc1 (no ACE2 captured) was subtracted from that of Fc2, Fc3 and Fc4 to correct for bulk effect and differences in non-specific binding to a reference surface. The signal from each blank run (Fc2-ACE2 captured but no antigen) was subtracted to correct for differences in surface stability. The double referenced sensorgrams were fitted with the Langmuir (1:1) binding model (Equation 1a below) where the closeness of fit of the data to the model is evaluated using the Chi square value which describes the deviation between the experimental and fitted (observed and expected) curves (Equation 1b below).

[2] = molecular target: T1, Biotinylated Human ACE2, His, Avitag protein; assay: Surface plasmon resonance (SPR) multiple cycle kinetics (MCK) direct binding; settings: 25° C., 6.25 nM to 100 nM analyte, Langmuir (1:1) model
Protocol: 3. Affinity Determination by Surface Plasmon Resonance (SPR) Via Multiple Cycle Kinetics (MCK)
Binding of bicyclic peptides of the invention to Biotinylated Human ACE2, His, Avitag™ protein (ACROBiosystems, AC2-H82E6) was assessed by a MCK analysis. Experiments were performed at 25° C. on a Biacore T200 (Cytiva) running Biacore T200 Control software V2.0.1 and Evaluation software V3.0 (Cytiva). HBS-EP+(Cytiva) was used as running buffer as well as for ligand and analyte dilutions. Biotin CAPture reagent was loaded onto a Series S Sensor CAP Chip (Cytiva) followed by loading of biotinylated ACE2 at a flow rate of 2 μl/min. The surface was then allowed to stabilise.
MCK data was obtained using bicyclic peptides of the invention as analytes injected at a flow rate of 30 μl/min to minimise any potential mass transfer effects. A five point, two-fold dilution range from 6.25 nM to 100 nM of analyte was prepared in running buffer. For each concentration, the association phases were monitored for 250 seconds and the dissociation phase was measured for 450 seconds. Regeneration of the sensor chip surface was conducted between cycles using the CAP Chip standard regeneration buffer (Cytiva). Multiple repeats of a blank and of Bicycle were programmed into the kinetic run in order to check the stability of both the surface and analyte over the kinetic cycles. […]

T1 sequence (Q9BYF1 18-740 limits assumed): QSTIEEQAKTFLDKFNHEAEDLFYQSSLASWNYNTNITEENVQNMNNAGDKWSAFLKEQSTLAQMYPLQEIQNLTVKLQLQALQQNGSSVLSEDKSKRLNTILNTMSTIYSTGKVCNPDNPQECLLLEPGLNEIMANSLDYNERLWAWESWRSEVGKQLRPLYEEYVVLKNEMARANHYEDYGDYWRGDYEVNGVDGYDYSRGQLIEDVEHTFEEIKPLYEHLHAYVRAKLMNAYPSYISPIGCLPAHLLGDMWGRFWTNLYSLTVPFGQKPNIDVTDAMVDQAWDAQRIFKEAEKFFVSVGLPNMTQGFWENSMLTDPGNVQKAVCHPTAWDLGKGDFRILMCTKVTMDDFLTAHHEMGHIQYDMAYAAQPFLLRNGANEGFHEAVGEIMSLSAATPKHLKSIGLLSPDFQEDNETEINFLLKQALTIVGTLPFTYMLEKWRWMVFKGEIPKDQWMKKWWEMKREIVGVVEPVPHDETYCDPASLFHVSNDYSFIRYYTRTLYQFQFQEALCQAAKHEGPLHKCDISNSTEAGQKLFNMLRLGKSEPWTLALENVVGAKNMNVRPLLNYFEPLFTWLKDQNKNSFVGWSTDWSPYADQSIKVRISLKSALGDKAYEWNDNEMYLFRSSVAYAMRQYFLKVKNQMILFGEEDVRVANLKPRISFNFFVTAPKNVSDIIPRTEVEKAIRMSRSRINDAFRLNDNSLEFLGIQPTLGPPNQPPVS

Substance	Geometric Mean KD (nM) [1]	Geometric Mean KD (nM) [2]
CiNAVLCiiSWA[HArg][dA]NSFCiii cyclised with TATA [BCY18256, Ac-(SEQ ID NO: 45)]	No sig. binding at top conc. tested	–
CiNDVLCiiSWA[HArg]ANSFCiii cyclised with TATA [BCY18659, Ac-(SEQ ID NO: 54)]	No sig. binding at top conc. tested	–
CiNEVLCiiSWA[HArg]ANSFCiii cyclised with TATA [BCY18783, Ac-(SEQ ID NO: 55)]	No sig. binding at top conc. tested	–
CiNAVLCiiSWA[HArg][HyP]NSFCiii cyclised with TATA [BCY19024, Ac-(SEQ ID NO: 56)]	–	No sig. binding at top conc. tested

— patent US20230183291A1, “ANTI-INFECTIVE BICYCLIC PEPTIDE LIGANDS” (priority 2020, published 2023)
